Experiments:
ZIKV = test: Post-treatment antiviral assay, viral titration by TCID50, ZIKV-infected Vero cells; type: cell-based; settings: for % ZIKV Inhibition / IC50: Vero cells; for % ZIKV Inhibition: MOI 0.1, treated with CC20 of each sample for 120 h, TCID50; for SI / IC50: ZIKV; for SI: ratio of CC50 and IC50; for IC50: MOI 0.1, concentration to reduce viral titer by 50%; for ZIKV-induced cytopathic effect in Vero cell monolayers: treatment at CC20, microscopy, Figure 4B,C
Procedure: (§1) One day prior to infection with the ZIKV or DENV strain, Vero cells were seeded in 24-well plates (5 × 10^4 cells/well). The infection was performed at the multiplicity of infection (MOI) of 0.1 for 2 h at 37 °C in 5% CO2. After virus internalization, the inoculum was removed, and the cells were washed using the growth medium. […] 6-MMPr, used as positive control drug, was also included as a drug treatment in some wells [33]. Controls of mock (non-infected) and infected non-treated cells were included. At 120 h post-infection (hpi), the cytopathic effect was evaluated using an inverted microscope (AE2000 binocular microscope, Motic, Hong Kong), and cells were photographed with a smartphone. The cell supernatant was harvested at 120 hpi and stored at −80 °C for posterior virus titration, using the TCID50 method.
(§2) The TCID50 method was used here to perform viral titration. The titer values were expressed as log10 TCID50/mL. One day prior to titration, Vero cells were seeded in a 96-well plate (1 × 10^4 cells/well) at 37 °C in a 5% CO2 incubator. The cell supernatants that were previous stored (see item 2.5—cytopathic effect assay) were serially diluted 10-fold in DMEM and submitted to the cell monolayer. After incubation for 5 days at 37 °C and 5% CO2, the cytopathic effect was observed through an inverted optical microscope, and the reduction in viral titer was defined according to Reed–Muench parameters.
(§3) The differences in viral titer of treated and untreated infected cells were analyzed according to ANOVA followed by the Dunnett test using GraphPad Prism software v.5.01 (GraphPad Software, La Jolla, CA, USA). The drug concentration that reduced viral titer by 50% (IC50) was defined using the same software. This represents the compound concentration required to reduce ZIKV or DENV titer by 50% when compared with the non-treated cells. The CC50 and CC20 values were also calculated using GraphPad Prism software in a non-linear regression interpretation. The selective index (SI) was based on the ratio math of CC50 and IC50 values. Data were reported as the mean ± standard deviation (SD) of three independent experiments. Significance was only considered when p < 0.05.

[1] = Cell viability assay (MTT) in Vero cells; type: cell-based; settings: African green monkey
Procedure: (§4) The cell toxicity induced by the three tested fractions and the isolated flavonoids was evaluated in a growing Vero cell. […] To this end, Vero cells (1 × 10^4 cells/well) were plated in 96-well microplates 24 h beforehand. […] After a period of 120 h at 37 °C in a 5% CO2 atmosphere, the culture medium was removed from the plate, and 50 μL of recently prepared MTT solution (1 mg/mL) was then added. The 96-well microplate was placed in a CO2 incubator for 4 h at 37 °C. After this period, the MTT solution was replaced by DMSO. Then, the optical density at 540 nm (OD540) was measured using a BioTekTM ELx800TM 96-well plate reader (BioTek Instruments Inc., Winooski, VT. The OD540 subtraction of treated cells compared to untreated cells was calculated. […] The CC20 value was empirically defined as the maximum safe limit to perform the antiviral screening. Results were expressed as mean ± SD of three independent replicates. The differences in viral titer of treated and untreated infected cells were analyzed according to ANOVA followed by the Dunnett test using GraphPad Prism software v.5.01 (GraphPad Software, La Jolla, CA, USA). The drug concentration that reduced viral titer by 50% (IC50) was defined using the same software. […] The CC50 and CC20 values were also calculated using GraphPad Prism software in a non-linear regression interpretation. The selective index (SI) was based on the ratio math of CC50 and IC50 values. Data were reported as the mean ± standard deviation (SD) of three independent experiments. Significance was only considered when p < 0.05.

DENV-2 = test: Post-treatment antiviral assay, viral titration by TCID50, DENV-infected Vero cells; type: cell-based; settings: for SI / IC50: DENV; for SI: ratio of CC50 and IC50; for IC50 / % DENV-2 Inhibition: Vero cells; for IC50: MOI 0.1, concentration to reduce viral titer by 50%; for % DENV-2 Inhibition: MOI 0.1, treated with CC20 of each sample for 120 h, TCID50
Procedure: as §1, §2, §3

Hela cells = test system: Hela cells; design: method as in PMID 29354400; settings: at the tested concentrations, ref [59]; cited from earlier work
Vero cells = test: Cell viability assay (MTT) in Vero cells; type: cell-based; settings: Vero cells
Procedure: as §4

[2] = Table 3, non-toxic concentration used in the antiviral assays

SMILES	% ZIKV Inhibition (ZIKV) [%]	SI (ZIKV)	IC50 (ZIKV; Zika virus) [µM]	ZIKV-induced cytopathic effect in Vero cell monolayers (ZIKV)	CC50 at 120 h [1] [µM]	SI (DENV-2)	IC50 (DENV-2; Dengue virus, DENV2) [µM]	% DENV-2 Inhibition (DENV-2) [%]	DENV-induced cytopathic effect in Vero cell monolayers (DENV-2; treatment at CC20, microscopy, Figure 5B,C)	cell viability (Hela cells) [%]	IC50 (ZIKV) [µM]	CC50 (Vero cells; Table 2, MTT method, 120 h) [µM]	CC50 (Vero cells; Table 3) [µM]	CC20 (Vero cells; [2]) [μM/mL]	IC50 (DENV-2) [µM]	CC20 (Vero cells; Table 2, MTT method, 120 h) [µM/mL]
COc1cc(O)c2c(c1)O[C@H](c1ccc(O)cc1)CC2=O [7-O-methyl naringenin]	30.3	18.7	12.8	prevented morphological modifications	240	7.7	30.9	51.6	prevented morphological modifications	100						
CSc1ncnc2c1ncn2[C@@H]1O[C@H](CO)[C@@H](O)[C@H]1O [6-MMPr, 6-methylmercaptopurine riboside, reference compound]	51.5	11.9				16.0		48.3			24.5	291	291	60.5	18.2	
O=C1C[C@@H](c2ccc(O)cc2)Oc2cc(O)cc(O)c21 [Naringenin]	34.7		58.9	prevented morphological modifications	242		42.9	61.5						86.43		86.43

From publication PMC10609720, “Antiviral Activity of Flavonoids from Geopropolis of the Brazilian Jandaira Bee against Zika and Dengue Viruses” (Pharmaceutics, 2023)
